Test results reported in patent publication US20260274892A1, “MACROCYCLIC BROAD SPECTRUM ANTIBIOTICS” (RQx Pharmaceuticals, Inc., priority 2017, published 2026).

Columns and labels:
[1] = tested on: Methicillin Resistant Staphylococcus aureus strain USA 200; assay: Minimum inhibitory concentration (MIC), CLSI broth micro-dilution, S. aureus; format: cell-based; conditions: Staphylococcus aureus, MRSA / USA200; Table 6; MRSA USA 200; cation adjusted Mueller Hinton Broth + 0.002% Tween-80; 35° C., 22 hours
Procedure, shortened: (§1)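 Antibacterial potency is measured as MIC by the CLSI broth dilution method. Bacteria at OD600 0.0005 in Tween-80-supplemented cation-adjusted Mueller Hinton broth face ten twofold compound dilutions for 22 h at 35° C.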

[2] = tested on: Escherichia coli ATCC 25922; assay: Minimum inhibitory concentration (MIC), CLSI broth micro-dilution, E. coli; format: cell-based; conditions: Escherichia coli, ATCC25922, 22 h, Table 6, cation adjusted Mueller Hinton Broth + 0.002% Tween-80, 35° C.
Procedure, shortened: as §1

| Structure (SMILES) | MIC [1] | MIC [2] |
| --- | --- | --- |
| Cc1nc(-c2ccc(C(C)(C)C)cc2)nc(C)c1C(=O)N[C@@H](COCCN)C(=O)N(C)[C@@H]1C(=O)N[C@@H](C)C(=O)N[C@H](C(=O)NCC#N)Cc2ccc(OCCN)c(c2)-c2cc1ccc2OCCN (racemic) [Compound 495, rac-(8S,11S,14S)-3,18-bis(2-aminoethoxy)-N-(cyanomethyl)-11-methyl-14-[methyl-[rac-(2S)-3-(2-aminoethoxy)-2-[[2-(4-tert-butylphenyl)-4,6-dimethyl-pyrimidine-5-carbonyl]amino]propanoyl]amino]-10,13-dioxo-9,12-diazatricyclo[13.3.1.12,6]icosa-1(18),2(20),3,5,15(19),16-hexaene-8-carboxamide] | 0.031 µM | 1 µM |
| Cc1nc(-c2ccc(OC3CCCCC3)cc2)nc(C)c1C(=O)N[C@@H](CCC(N)=O)C(=O)N(C)[C@@H]1C(=O)N[C@@H](C)C(=O)N[C@H](C(=O)NCC#N)Cc2ccc(OCCN)c(c2)-c2cc1ccc2OCCN (racemic) [Compound 505, rac-(2S)-2-[[2-[4-(cyclohexoxy)phenyl]-4,6-dimethyl-pyrimidine-5-carbonyl]amino]-N-methyl-N-[rac-(7S,10S,13S)-3,18-bis(2-aminoethoxy)-13-(cyanomethylcarbamoyl)-10-methyl-8,11-dioxo-9,12-diazatricyclo[13.3.1.12,6]icosa-1(19),2,4,6(20),15,17-hexaen-7-yl]pentanediamide] | 0.094 µM | 1.5 µM |
| CCCCCc1ccc(-c2nc(C)c(C(=O)N[C@@H](CCN)C(=O)N(C)[C@@H]3C(=O)N[C@@H](C)C(=O)N[C@H](C(=O)NCC#N)Cc4ccc(OCCN)c(c4)-c4cc3ccc4OCCN)c(C)n2)cc1 (racemic) [Compound 513, rac-(8S,11S,14S)-3,18-bis(2-aminoethoxy)-N-(cyanomethyl)-11-methyl-14-[methyl-[rac-(2S)-4-amino-2-[[4,6-dimethyl-2-(4-pentylphenyl)pyrimidine-5-carbonyl]amino]butanoyl]amino]-10,13-dioxo-9,12-diazatricyclo[13.3.1.12,6]icosa-1(18),2(20),3,5,15(19),16-hexaene-8-carboxamide] | 0.0061 µM | 0.097 µM |
| CCc1ccc(-c2nc(C)c(C(=O)N[C@@H](CCN)C(=O)N(C)[C@@H]3C(=O)N[C@@H](C)C(=O)N[C@H](C(=O)NCC#N)Cc4ccc(O)c(c4)-c4cc3ccc4OCCN)c(C)n2)cc1 (racemic) [Compound 516, rac-(8S,11S,14S)-18-(2-aminoethoxy)-N-(cyanomethyl)-3-hydroxy-11-methyl-14-[methyl-[rac-(2S)-4-amino-2-[[2-(4-ethylphenyl)-4,6-dimethyl-pyrimidine-5-carbonyl]amino]butanoyl]amino]-10,13-dioxo-9,12-diazatricyclo[13.3.1.12,6]icosa-1(18),2(20),3,5,15(19),16-hexaene-8-carboxamide] | 0.19 µM | 2 µM |
| CC(=O)NCCOc1ccc2cc1-c1cc(ccc1OCCN)[C@H](N(C)C(=O)[C@H](CCN)NC(=O)c1c(C)nc(-c3ccc(C(C)(C)C)cc3)nc1C)C(=O)N[C@@H](C)C(=O)N[C@H](C(=O)NCC#N)C2 (racemic) [Compound 517, rac-(8S,11S,14S)-3-(2-acetamidoethoxy)-18-(2-aminoethoxy)-N-(cyanomethyl)-11-methyl-14-[methyl-[rac-(2S)-4-amino-2-[[2-(4-tert-butylphenyl)-4,6-dimethyl-pyrimidine-5-carbonyl]amino]butanoyl]amino]-10,13-dioxo-9,12-diazatricyclo[13.3.1.12,6]icosa-1(18),2(20),3,5,15(19),16-hexaene-8-carboxamide] | 0.19 µM | 0.75 µM |
| CCCCCOc1ccc(-c2nc(C)c(C(=O)N[C@@H](CCN)C(=O)N(C)[C@@H]3C(=O)N[C@@H](C)C(=O)N[C@H](C(=O)NCC#N)Cc4ccc(O)c(c4)-c4cc3ccc4OCCN)c(C)n2)cc1 (racemic) [Compound 518, rac-(8S,11S,14S)-18-(2-aminoethoxy)-N-(cyanomethyl)-3-hydroxy-11-methyl-14-[methyl-[rac-(2S)-4-amino-2-[[4,6-dimethyl-2-(4-pentoxyphenyl)pyrimidine-5-carbonyl]amino]butanoyl]amino]-10,13-dioxo-9,12-diazatricyclo[13.3.1.12,6]icosa-1(18),2(20),3,5,15(19),16-hexaene-8-carboxamide] | 0.028 µM | 0.16 µM |
| CCCCCc1ccc(-c2nc(C)c(C(=O)N[C@@H](CCN)C(=O)N(C)[C@@H]3C(=O)N[C@@H](C)C(=O)N[C@H](C(=O)NCC#N)Cc4ccc(O)c(c4)-c4cc3ccc4OCCN)c(C)n2)cc1 (racemic) [Compound 521, rac-(8S,11S,14S)-18-(2-aminoethoxy)-N-(cyanomethyl)-3-hydroxy-11-methyl-14-[methyl-[rac-(2S)-4-amino-2-[[4,6-dimethyl-2-(4-pentylphenyl)pyrimidine-5-carbonyl]amino]butanoyl]amino]-10,13-dioxo-9,12-diazatricyclo[13.3.1.12,6]icosa-1(18),2(20),3,5,15(19),16-hexaene-8-carboxamide] | 0.047 µM | 0.2 µM |
| Cc1nc(-c2ccc(C(C)(C)C)cc2)ncc1C(=O)N[C@@H](CCN)C(=O)N(C)[C@@H]1C(=O)N[C@@H](C)C(=O)N[C@H](C(=O)NCC#N)Cc2ccc(O)c(c2)-c2cc1ccc2OCCN (racemic) [Compound 523, rac-(8S,11S,14S)-18-(2-aminoethoxy)-N-(cyanomethyl)-3-hydroxy-11-methyl-14-[methyl-[rac-(2S)-4-amino-2-[[2-(4-tert-butylphenyl)-4-methyl-pyrimidine-5-carbonyl]amino]butanoyl]amino]-10,13-dioxo-9,12-diazatricyclo[13.3.1.12,6]icosa-1(18),2(20),3,5,15(19),16-hexaene-8-carboxamide] | 0.044 µM | 0.28 µM |

The remaining lines, values ahead:

| MIC [1] | MIC [2] | Structure (SMILES) |
| --- | --- | --- |
| 0.56 µM | 4.5 µM | Cc1nc(-c2ccc(O)cc2)ncc1C(=O)N[C@@H](CCN)C(=O)N(C)[C@@H]1C(=O)N[C@@H](C)C(=O)N[C@H](C(=O)NCC#N)Cc2ccc(OCCN)c(c2)-c2cc1ccc2OCCN (racemic) [Compound 524, rac-(8S,11S,14S)-3,18-bis(2-aminoethoxy)-N-(cyanomethyl)-11-methyl-14-[methyl-[rac-(2S)-4-amino-2-[[2-(4-hydroxyphenyl)-4-methyl-pyrimidine-5-carbonyl]amino]butanoyl]amino]-10,13-dioxo-9,12-diazatricyclo[13.3.1.12,6]icosa-1(18),2(20),3,5,15(19),16-hexaene-8-carboxamide] |
| 0.053 µM | 0.56 µM | Cc1cc(-c2ccc(CC(C)C)cc2)ncc1C(=O)N[C@@H](CCN)C(=O)N(C)[C@@H]1C(=O)N[C@@H](C)C(=O)N[C@H](C(=O)NCC#N)Cc2ccc(O)c(c2)-c2cc1ccc2OCCN (racemic) [Compound 525, rac-(8S,11S,14S)-18-(2-aminoethoxy)-N-(cyanomethyl)-3-hydroxy-11-methyl-14-[methyl-[rac-(2S)-4-amino-2-[[6-(4-isobutylphenyl)-4-methyl-pyridine-3-carbonyl]amino]butanoyl]amino]-10,13-dioxo-9,12-diazatricyclo[13.3.1.12,6]icosa-1(18),2(20),3,5,15(19),16-hexaene-8-carboxamide] |
| 0.047 µM | 0.33 µM | Cc1nc(-c2ccc(C(C)(C)C)cc2)ccc1C(=O)N[C@@H](CCN)C(=O)N(C)[C@@H]1C(=O)N[C@@H](C)C(=O)N[C@H](C(=O)NCC#N)Cc2ccc(O)c(c2)-c2cc1ccc2OCCN (racemic) [Compound 526, rac-(8S,11S,14S)-18-(2-aminoethoxy)-N-(cyanomethyl)-3-hydroxy-11-methyl-14-[methyl-[rac-(2S)-4-amino-2-[[6-(4-tert-butylphenyl)-2-methyl-pyridine-3-carbonyl]amino]butanoyl]amino]-10,13-dioxo-9,12-diazatricyclo[13.3.1.12,6]icosa-1(18),2(20),3,5,15(19),16-hexaene-8-carboxamide] |
| 0.063 µM | 0.35 µM | Cc1cc(-c2ccc(C(C)(C)C)cc2)nc(C)c1C(=O)N[C@@H](CCN)C(=O)N(C)[C@@H]1C(=O)N[C@@H](C)C(=O)N[C@H](C(=O)NCC#N)Cc2ccc(O)c(c2)-c2cc1ccc2OCCN (racemic) [Compound 530, rac-(8S,11S,14S)-18-(2-aminoethoxy)-N-(cyanomethyl)-3-hydroxy-11-methyl-14-[methyl-[rac-(2S)-4-amino-2-[[6-(4-tert-butylphenyl)-2,4-dimethyl-pyridine-3-carbonyl]amino]butanoyl]amino]-10,13-dioxo-9,12-diazatricyclo[13.3.1.12,6]icosa-1(18),2(20),3,5,15(19),16-hexaene-8-carboxamide] |
| 0.047 µM | 0.25 µM | Cc1nc(-c2ccc3c(c2)CCC3(C)C)nc(C)c1C(=O)N[C@@H](CCN)C(=O)N(C)[C@@H]1C(=O)N[C@@H](C)C(=O)N[C@H](C(=O)NCC#N)Cc2ccc(O)c(c2)-c2cc1ccc2OCCN (racemic) [Compound 531, rac-(8S,11S,14S)-18-(2-aminoethoxy)-N-(cyanomethyl)-3-hydroxy-11-methyl-14-[methyl-[rac-(2S)-4-amino-2-[[2-(1,1-dimethylindan-5-yl)-4,6-dimethyl-pyrimidine-5-carbonyl]amino]butanoyl]amino]-10,13-dioxo-9,12-diazatricyclo[13.3.1.12,6]icosa-1(18),2(20),3,5,15 8-carboxamide] |
